Data reported in US20260242416A1, “ANTIMICROBIAL PEPTIDES” (priority 2023, published 2026).
Values after ≈ are worked out from the molar mass of the structure shown. Like-named read-outs stand apart in the source and are kept apart here. Where a SMILES comes first, the peptide text is derived from it.

Columns and labels:
[1] = tested on: Salmonella enterica serovar Enteritidis (human clinical isolate); format: cell-based
In short: (§1)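 CLSI broth microdilution adapted for cationic peptides, in Mueller-Hinton broth, inoculum 2-8×10^5 cfu/mL. Peptides serially diluted from 128 to 0.5 μg/mL in polypropylene plates, incubated 20-24 h at 37° C. MIC = lowest concentration without visible growth.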

E. coli ATCC 25922 = format: cell-based, Escherichia coli
In short: as §1

S. aureus ATCC 29213 = format: cell-based, Staphylococcus aureus
In short: as §1

[2] = tested on: E. coli ATCC 25922, Salmonella Enteritidis, S. aureus ATCC 29213; assay: Broth microdilution, panel result (at least one / all strains), Example 2; format: cell-based; set-up: key to inhibitory activity (asterisk): *Indicates inhibitory activity; conditions: for inhibitory activity (asterisk): Table 14, against at least one of E. coli ATCC 25922, Salmonella Enteritidis, S. aureus ATCC 29213
Protocol: The antimicrobial activity of the putative AMPs was determined by a broth microdilution assay as described by the Clinical and Laboratory Standards Institute, with the published adaptations for testing of cationic peptides. Escherichia coli 25922 and Staphylococcus aureus 29213 isolates were purchased from the American Type Culture Collection (ATCC; Manassas, VA, USA). A human clinical isolate of Salmonella enterica serovar Enteritidis was provided by the BC Centre for Disease Control. Bacteria from stocks stored at −80° C. were streaked onto nonselective Columbia blood agar with 5% sheep blood (Oxoid) and incubated overnight at 37° C. Next, 2-4 colonies were streaked onto a new agar plate to ensure uniform health of colonies used in the broth microdilution assay. Isolated colonies were suspended in MHB and the optical density was measured with a spectrophotometer to create an initial inoculum concentration of approximately 1×10^8 cfu/mL. The inoculum was diluted 1:250 to a final concentration of 2-8×10^5 cfu/mL, which was confirmed by performing a Total Viability Count (TVC). The TVC consisted of plating a 1:1000 dilution of the final inoculum on nonselective media and was also used to confirm the health and purity of the inoculum in each trial.
Lyophilized 80 μg peptide aliquots synthesized by GenScript (Piscataway, NJ, USA) were resuspended to 1.28 mg/mL with UltraPure water (Thermo Fisher Scientific, Waltham, MA, USA) and serially diluted in polypropylene 96-well microtiter plates (Greiner Bio-One #650261, Kremsmunster, Austria) from 128 down to 0.5 μg/mL. Two columns per plate were reserved for growth and sterility controls. Inoculum was added to the wells containing the peptide and the growth control. Plates were incubated for 20-24 h at 37° C. The minimum inhibitory concentration (MIC) was determined as the lowest peptide concentration where there was no visible bacterial growth.

[3] = serovar Enteritidis (human clinical isolate)

Structure (SMILES) | MIC (ug/mL) S. Enteritidis [1, 3] | MIC (ug/mL) E. coli (E. coli ATCC 25922; ATCC 25922) | MIC (ug/mL) S. aureus (S. aureus ATCC 29213; ATCC 29213) | inhibitory activity (asterisk) [2] | spectrum of antimicrobial activity ([2]; panel of E. coli, Salmonella Enteritidis, S. aureus, up to 128 μg/mL) | MIC (ug/mL) S. Enteritidis ([1]; Table 14, second value of the cell, three independent experiments, highest concentration tested 128) [µg/mL] | MIC (ug/mL) E. coli (E. coli ATCC 25922; Table 14, first value of the cell, three independent experiments, highest concentration tested 128) [µg/mL] | MIC (ug/mL) S. aureus (S. aureus ATCC 29213; Table 14, third value of the cell, three independent experiments, highest concentration tested 128) [µg/mL]
CC[C@H](C)[C@H](NC(=O)CNC(=O)[C@H](CO)NC(=O)[C@H](CC(C)C)NC(=O)[C@H](CC(C)C)NC(=O)CN)C(=O)N[C@@H](CC(C)C)C(=O)NCC(=O)N[C@@H](C)C(=O)NCC(=O)N[C@@H](CCCCN)C(=O)N[C@@H](CCCCN)C(=O)N[C@H](C(=O)N[C@H](C(=O)N[C@@H](CS)C(=O)NCC(=O)N[C@@H](Cc1ccccc1)C(=O)N[C@@H](CO)C(=O)NCC(=O)N[C@@H](CC(C)C)C(=O)N[C@@H](CS)C(=O)O)C(C)C)[C@@H](C)CC [OdMa1] (H-GLLSGILGAGKKIVCGFSGLC-OH; N-terminus and C-terminus assumed) | 128 µg/mL (≈ 64.2 µM) | 8 to 16 µg/mL | 64 µg/mL (≈ 32.1 µM) | 71.* GLLSGILGAGKKIVCGFSGLC | – | – | – | –
CC[C@H](C)[C@H](NC(=O)[C@H](CCCCN)NC(=O)[C@H](CCCCN)NC(=O)CNC(=O)[C@H](C)NC(=O)CNC(=O)[C@H](CC(C)C)NC(=O)[C@H](CC(C)C)NC(=O)CNC(=O)[C@H](CO)NC(=O)[C@H](CC(C)C)NC(=O)[C@H](CC(C)C)NC(=O)CN)C(=O)N[C@H](C(=O)N[C@@H](CS)C(=O)NCC(=O)N[C@@H](CC(C)C)C(=O)N[C@@H](CO)C(=O)NCC(=O)N[C@@H](CCSC)C(=O)N[C@@H](CS)C(=O)O)C(C)C [OdMa3] (H-GLLSGLLGAGKKIVCGLSGMC-OH; N-terminus and C-terminus assumed) | 64 µg/mL (≈ 32.4 µM) | 8 to 16 µg/mL | 32 µg/mL (≈ 16.2 µM) | 59.* GLLSGLLGAGKKIVCGLSGMC | – | – | – | –
CC(C)C[C@H](NC(=O)CNC(=O)[C@H](CO)NC(=O)[C@H](CC(C)C)NC(=O)CNC(=O)[C@H](CS)NC(=O)[C@H](CC(C)C)NC(=O)[C@@H](NC(=O)[C@H](CCCCN)NC(=O)[C@H](CCCCN)NC(=O)CNC(=O)[C@@H](NC(=O)CNC(=O)[C@H](CC(C)C)NC(=O)[C@@H](NC(=O)CNC(=O)[C@H](CO)NC(=O)[C@H](CC(C)C)NC(=O)[C@H](CC(C)C)NC(=O)CN)C(C)C)C(C)C)C(C)C)C(=O)N[C@@H](CS)C(=O)O [OdMa7] (H-GLLSGVLGVGKKVLCGLSGLC-OH; N-terminus and C-terminus assumed) | 128 µg/mL (≈ 64.9 µM) | 8 to 16 µg/mL | 16 to 32 µg/mL | 1093.* GLLSGVLGVGKKVLCGLSGLC | – | – | – | –
CC(C)C[C@H](NC(=O)[C@H](CCCCN)NC(=O)[C@H](Cc1c[nH]c2ccccc12)NC(=O)[C@H](CC(C)C)NC(=O)[C@@H](NC(=O)[C@H](CC(C)C)NC(=O)[C@H](Cc1ccccc1)NC(=O)[C@H](CC(C)C)NC(=O)[C@@H](N)CCCCN)[C@@H](C)O)C(=O)N[C@@H](CCCCN)C(=O)N[C@@H](CCCNC(=N)N)C(=O)O [NaVi3, KLFLTLWKLKR] (H-KLFLTLWKLKR-OH; N-terminus and C-terminus assumed) | 64 µg/mL (≈ 44.3 µM) | 8 to 16 µg/mL | 128 µg/mL (≈ 88.5 µM) | 895.* KLFLTLWKLKR | – | – | – | –
CC(C)C[C@H](NC(=O)CNC(=O)[C@H](CO)NC(=O)[C@@H](NC(=O)[C@@H](NC(=O)[C@H](CS)NC(=O)[C@H](CC(C)C)NC(=O)[C@@H](NC(=O)[C@H](CCCCN)NC(=O)[C@H](CCCCN)NC(=O)CNC(=O)[C@@H](NC(=O)CNC(=O)[C@H](CC(C)C)NC(=O)[C@@H](NC(=O)[C@H](CCCCN)NC(=O)CNC(=O)[C@H](CC(C)C)NC(=O)[C@H](CC(C)C)NC(=O)CN)C(C)C)C(C)C)C(C)C)C(C)C)C(C)C)C(=O)N[C@@H](CS)C(=O)O [PeNi2] (H-GLLGKVLGVGKKVLCVVSGLC-OH; N-terminus and C-terminus assumed) | 16 to 32 µg/mL | 4 µg/mL (≈ 1.96 µM) | 4 µg/mL (≈ 1.96 µM) | 395.* GLLGKVLGVGKKVLCVVSGLC | – | – | – | –
CC[C@H](C)[C@H](NC(=O)CN)C(=O)N[C@@H](CC(C)C)C(=O)N[C@@H](CO)C(=O)NCC(=O)N[C@@H](CC(C)C)C(=O)N[C@@H](CC(C)C)C(=O)NCC(=O)N[C@@H](C)C(=O)NCC(=O)N[C@@H](CCCCN)C(=O)N[C@@H](CCCCN)C(=O)N[C@H](C(=O)N[C@H](C(=O)N[C@@H](CS)C(=O)O)C(C)C)[C@@H](C)CC [OdMa4, GILSGLLGAGKKIVC] (H-GILSGLLGAGKKIVC-OH; N-terminus and C-terminus assumed) | 32 µg/mL (≈ 22.4 µM) | 8 to 16 µg/mL | > 128 µg/mL | 62.* GILSGLLGAGKKIVC | selective antimicrobial activity against the Gram-negative bacteria tested | – | – | –
CC[C@H](C)[C@H](NC(=O)CNC(=O)[C@H](CO)NC(=O)[C@@H](NC(=O)[C@H](CC(C)C)NC(=O)CN)[C@@H](C)CC)C(=O)N[C@@H](CC(C)C)C(=O)NCC(=O)N[C@@H](C)C(=O)NCC(=O)N[C@@H](CCCCN)C(=O)N[C@@H](CCCCN)C(=O)N[C@H](C(=O)N[C@@H](CC(C)C)C(=O)N[C@@H](CS)C(=O)NCC(=O)N[C@@H](CC(C)C)C(=O)N[C@@H](CO)C(=O)NCC(=O)N[C@@H](CC(C)C)C(=O)N[C@@H](CS)C(=O)O)C(C)C [OdMa10] (H-GLISGILGAGKKVLCGLSGLC-OH; N-terminus and C-terminus assumed) | > 128 µg/mL | 16 to 32 µg/mL | 64 to 128 µg/mL | 1094.* GLISGILGAGKKVLCGLSGLC | – | – | – | –
CC[C@H](C)[C@H](NC(=O)[C@H](CC(=O)O)NC(=O)[C@H](CC(C)C)NC(=O)[C@H](Cc1c[nH]c2ccccc12)NC(=O)CN)C(=O)N[C@@H](C)C(=O)N[C@@H](CCCCN)C(=O)N[C@@H](CCCCN)C(=O)N[C@H](C(=O)N[C@@H](C)C(=O)N[C@@H](CO)C(=O)N[C@H](C(=O)N[C@H](C(=O)N[C@@H](C)C(=O)NCC(=O)N[C@@H](CC(C)C)C(=O)NCC(=O)N[C@@H](CCCCN)C(=O)N[C@@H](CCCNC(=N)N)C(=O)O)C(C)C)C(C)C)C(C)C [LiVe2, GWLDIAKKVASVVAGLGKR] (H-GWLDIAKKVASVVAGLGKR-OH; N-terminus and C-terminus assumed) | 64 to 128 µg/mL | 4 to 8 µg/mL | 64 µg/mL (≈ 32.5 µM) | 40.* GWLDIAKKVASVVAGLGKR | – | – | – | –
CC[C@H](C)[C@H](NC(=O)[C@@H]1CCCN1C(=O)[C@H](CS)NC(=O)[C@H](C)NC(=O)[C@@H](N)Cc1ccccc1)C(=O)NCC(=O)N[C@@H](Cc1ccccc1)C(=O)N[C@@H](Cc1ccccc1)C(=O)N[C@@H](CCCNC(=N)N)C(=O)N[C@@H](CC(C)C)C(=O)N[C@@H](CCCCN)C(=O)N[C@@H](CCCNC(=N)N)C(=O)O [CaCa1, FACPIGFFRLKR] (H-FACPIGFFRLKR-OH; N-terminus and C-terminus assumed) | 128/>128/>128 ug/mL | 128/>128/>128 ug/mL | 128/>128/>128 ug/mL | 826.* FACPIGFFRLKR | – | – | – | –
CC[C@H](C)[C@H](NC(=O)[C@H](CO)NC(=O)[C@H](CC(C)C)NC(=O)[C@H](CO)NC(=O)[C@H](CCCCN)NC(=O)[C@H](CC(C)C)NC(=O)[C@H](C)NC(=O)[C@@H](N)[C@@H](C)O)C(=O)N[C@@H](CC(C)C)C(=O)N[C@@H](CCCCN)C(=O)N[C@@H](CCCCN)C(=O)N[C@@H](CC(C)C)C(=O)N[C@@H](C)C(=O)N[C@@H](CCCCN)C(=O)N[C@@H](CC(C)C)C(=O)N[C@@H](CC(N)=O)C(=O)N[C@@H](CCSC)C(=O)O [PoSn2, TALKSLSILKKLAKLNM] (H-TALKSLSILKKLAKLNM-OH; N-terminus and C-terminus assumed) | – | – | – | 942.* TALKSLSILKKLAKLNM | – | > 128 | 64 to 128 | > 128
CC[C@H](C)[C@H](NC(=O)CNC(=O)[C@H](CO)NC(=O)[C@@H](NC(=O)[C@H](CC(C)C)NC(=O)CN)[C@@H](C)CC)C(=O)N[C@@H](CC(C)C)C(=O)NCC(=O)N[C@@H](C)C(=O)NCC(=O)N[C@@H](CCCCN)C(=O)N[C@@H](CCCCN)C(=O)N[C@H](C(=O)N[C@@H](CC(C)C)C(=O)N[C@@H](CS)C(=O)O)C(C)C [OdMa9, GLISGILGAGKKVLC] (H-GLISGILGAGKKVLC-OH; N-terminus and C-terminus assumed) | 128 µg/mL (≈ 89.6 µM) | 64 to 128 µg/mL | > 128 µg/mL | 68.* GLISGILGAGKKVLC | – | – | – | –
